Legend:
[1] = molecular target: T1, purified and unphosphorylated T315I Abl kinase domain (ABL_T315I_0P) (Mus musculus, UniProt P00520, T315I); test: c-Abl T315I (unphosphorylated kinase domain) pyruvate kinase/lactate dehydrogenase coupled enzyme assay; format: biochemical; conditions: 10 μM ATP
T1 construct: The c-Abl T3151 KD (kinase domain) was purified as follows; Met-Ser-Leu (vector-derived residues) (N); made in house; host or cells: E. coli BL21(DE3) strains (Codon+RIL, or pSA0145 for the lambda phosphatase co-expression plasmid)
T1 sequence (P00520 242-493 T315I limits assumed): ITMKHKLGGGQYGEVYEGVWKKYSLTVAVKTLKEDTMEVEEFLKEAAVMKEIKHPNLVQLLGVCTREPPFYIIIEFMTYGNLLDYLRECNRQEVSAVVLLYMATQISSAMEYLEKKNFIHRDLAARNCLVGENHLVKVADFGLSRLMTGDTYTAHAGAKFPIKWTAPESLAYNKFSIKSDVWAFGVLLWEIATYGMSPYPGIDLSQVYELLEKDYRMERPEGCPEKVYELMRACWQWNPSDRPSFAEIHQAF

ABL P210WT BAF3 cells = molecular target: T2, ABL P210WT BAF3 cells (Homo sapiens, UniProt P00519); test: 96-well XTT cell survival assay, BaF3 ABL P210WT; format: cell-based; conditions: ABL P210 WT, 72 hours, read-out: CELL BIO ABL P210WT BAF3 XTT (IC50)
T2 construct: ABL P210WT BAF3; fused on or other part: P11274 (Breakpoint cluster region protein)
In short: (§1)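 Ba/F3 cells in RPMI 1640 with 10% FBS (IL-3 medium for maintenance) were seeded at 5000-8000 cells/well and exposed to compound dilutions in duplicate for 72 h at 37° C. Viability read by XTT/PMS, absorbance 405 nm minus 650 nm after 2-6 h.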

ABL T315I BAF3 cells = molecular target: T3, ABL T315I BAF3 cells (Homo sapiens, UniProt P00519, T315I, cells depend on it); test: 96-well XTT cell survival assay, BaF3 ABL T315I; format: cell-based; conditions: 72 hours, read-out: CELL BIO ABL T315I BAF3 XTT (IC50)
T3 construct: ABL T315I BAF3; fused on or other part: P11274 (Breakpoint cluster region protein)
In short: as §1

Row | ABL_T315I_0P (IC50) [1] | SMILES | GI50 (ABL P210WT BAF3 cells) [µM] | GI50 (ABL T315I BAF3 cells) [µM]
1 | D (<0.01 μM) | CN(C)C1CCN(C(=O)c2cc(-c3cnc4[nH]cc(-c5cc(F)ccc5F)c4c3Cl)cnc2N)C1 (stereo not drawn) [{2-Amino-5-[4-chloro-3-(2,5-difluoro-phenyl)-1H-pyrrolo[2,3-b]pyridin-5-yl]-pyridin-3-yl}-(3-dimethylamino-pyrrolidin-1-yl)-methanone] | 0.1 to 1 | 0.1 to 1
2 | C (0.1-0.01 μM) | CNc1c(Br)cnc2[nH]cc(-c3ccccc3OC)c12 [[5-Bromo-3-(2-methoxy-phenyl)-1H-pyrrolo[2,3-b]pyridin-4-yl]-methyl-amine] | > 1 | > 1
3 | D (<0.01 μM) | CN(C)C(=O)C(O)c1cncc(-c2cnc3[nH]cc(-c4ccccc4F)c3c2Cl)c1 (stereo not drawn) [2-{5-[4-Chloro-3-(2-fluoro-phenyl)-1H-pyrrolo[2,3-b]pyridin-5-yl]-pyridin-3-yl}-2-hydroxy-N,N-dimethyl-acetamide] | 0.1 to 1 | 0.1 to 1
4 | D (<0.01 μM) | CN(C)C(=O)c1cncc(-c2cnc3[nH]cc(-c4cccc(F)c4F)c3c2Cl)c1 [5-[4-Chloro-3-(2,3-difluoro-phenyl)-1H-pyrrolo[2,3-b]pyridin-5-yl]-N,N-dimethyl-nicotinamide] | 0.1 to 1 | 0.1 to 1
5 | D (<0.01 μM) | Nc1ncc(-c2cnc3[nH]cc(-c4cccc(F)c4)c3c2Cl)cc1C(=O)N1CCOCC1 [{2-Amino-5-[4-chloro-3-(3-fluoro-phenyl)-1H-pyrrolo[2,3-b]pyridin-5-yl]-pyridin-3-yl}-morpholin-4-yl-methanone] | 0.01 to 0.1 | 0.01 to 0.1

Further lines, the compound ahead of its results:

Row | SMILES | ABL_T315I_0P (IC50) [1] | GI50 (ABL P210WT BAF3 cells) [µM] | GI50 (ABL T315I BAF3 cells) [µM]
6 | NC(=O)C(O)c1cncc(-c2cnc3[nH]cc(-c4ccccc4F)c3c2Cl)c1 (stereo not drawn) | D (<0.01 μM) | > 1 | > 1
7 | CNC(=O)c1cncc(-c2cnc3[nH]cc(-c4ccccc4F)c3c2Cl)n1 | C (0.1-0.01 μM) | > 1 | > 1
8 | CNc1ncccc1-c1c[nH]c2ncc(-c3cncc(C(O)C(=O)N(C)C)c3)c(Cl)c12 (stereo not drawn) | C (0.1-0.01 μM) | > 1 | > 1
9 | COc1cc(F)ccc1-c1c[nH]c2ncc(-c3cnc(N)c(C(=O)N(C)C)c3)c(Cl)c12 [2-Amino-5-[4-chloro-3-(4-fluoro-2-methoxy-phenyl)-1H-pyrrolo[2,3-b]pyridin-5-yl]-N,N-dimethyl-nicotinamide] | D (<0.01 μM) | 0.01 to 0.1 | 0.01 to 0.1
10 | COc1ccccc1-c1c[nH]c2ncc(-c3ccc(N)c(C(=O)N(C)C)c3)c(Cl)c12 [2-Amino-5-[4-chloro-3-(2-methoxy-phenyl)-1H-pyrrolo[2,3-b]pyridin-5-yl]-N,N-dimethyl-benzamide] | D (<0.01 μM) | < 0.01 | < 0.01
11 | CN(C)C(=O)C(O)c1cncc(-c2cnc3[nH]cc(-c4cccc(F)c4F)c3c2Cl)c1 (stereo not drawn) [2-{5-[4-Chloro-3-(2,3-difluoro-phenyl)-1H-pyrrolo[2,3-b]pyridin-5-yl]-pyridin-3-yl}-2-hydroxy-N,N-dimethyl-acetamide] | D (<0.01 μM) | 0.1 to 1 | 0.1 to 1

Reference: patent US8158647B2, “Substituted pyrrolopyridines and pyrazolopyridines as kinase modulators” (SGX Pharmaceuticals, Inc., priority 2007, dated 2012)
